Laboratory results: patent EP4227307A1 (Genzyme Corporation, priority 2022, dated 2023)
Counter-ions that a name gives are not always drawn.

Target: T1, human recombinant 6His-Nterm SHP2 full-length (Thr2-Arg593) (Homo sapiens, UniProt Q06124)
T1 construct: 6His-Nterm SHP2 full-length (Thr2-Arg593, R&D system); 6His (N); purchased R&D system
T1 sequence (Q06124 2-593): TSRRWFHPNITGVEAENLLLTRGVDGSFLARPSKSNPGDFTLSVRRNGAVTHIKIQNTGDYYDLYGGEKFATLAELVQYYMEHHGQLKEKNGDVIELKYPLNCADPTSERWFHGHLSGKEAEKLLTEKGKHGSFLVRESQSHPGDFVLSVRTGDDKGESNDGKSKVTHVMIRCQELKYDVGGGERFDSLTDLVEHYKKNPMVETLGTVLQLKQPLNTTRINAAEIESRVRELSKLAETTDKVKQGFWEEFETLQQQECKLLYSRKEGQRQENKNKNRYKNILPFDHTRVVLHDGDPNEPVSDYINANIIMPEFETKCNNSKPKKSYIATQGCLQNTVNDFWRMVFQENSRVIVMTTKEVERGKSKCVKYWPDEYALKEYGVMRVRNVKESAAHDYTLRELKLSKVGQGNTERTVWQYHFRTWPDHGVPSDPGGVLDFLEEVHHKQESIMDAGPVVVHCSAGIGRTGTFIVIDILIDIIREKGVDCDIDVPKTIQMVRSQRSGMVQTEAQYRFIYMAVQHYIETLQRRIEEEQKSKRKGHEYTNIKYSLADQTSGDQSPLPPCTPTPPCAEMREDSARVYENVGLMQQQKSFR
Test: SHP2 Phosphatase Assay (DiFMUP fluorescence)
Assay type: biochemical
Settings: SHP2 0.2 nM pre-incubated with 100 nM bi-phosphorylated activating peptide; compound 1000-0.05 nM, 30 min pre-incubation; DiFMUP 20 µM, 45 min, room temperature; 10-concentration dose-response
Protocol: Inhibition of SHP2 phosphatase activity was evaluated using human recombinant 6His-Nterm SHP2 full-length (Thr2-Arg593, R&D system), NsCs bi-phosphorylated activating peptide (NH2-LN(pY)AQLWHA(PEG8)LTI(pY)ATIRRF-Amide.acetate, Thermofischer Scientific) and DiFMUP as surrogate phosphatase substrate (Molecular Probes). All reactions were performed at room temperature in 384-well black polystyrene non-binding plate (Corning) with the assay buffer (50 mM HEPES-NaOH pH 7.2, 100 mM NaCl, 0.5 mM EDTA, 0.001% Brij35 including 0.02% BSA and 1 mM DTT added extemporaneously). SHP2 was pre-incubated at least 10 min with the activating peptide (0.2 nM and 100 nM, respectively). 10 µL of this mixture was added to the assay plate, that already contained 15 nL of the compound (1000-0.05 nM). After 30 min pre-incubation, the enzymatic reaction was initiated by the addition of 5 µL DiFMUP in assay buffer without BSA (20 µM). The reaction was stopped by the addition of 15 µL sodium pervanadate solution (100 µM) after 45 min incubation. The fluorescence signal was measured at excitation and emission wavelengths of 350 nm and 450 nm, respectively, using a Pherastar instrument (BMG-LabTech). Percentage of inhibition […] were calculated from the fluorescence signal at 450 nm of the positive and negative control using the following formula: I% = ((signal Max−signal Sample)/(signal Max−signal Min control)) × 100 [formula]
Positive control (Max): corresponds to the maximum fluorescence signal obtained in the presence of 15 nL DMSO replacing the inhibitor in the pre-incubation step.
Negative control (Min): corresponds to the minimum signal obtained in the presence of 1 µM of RMC-4550, the structure of which is shown below: [drawing 464]
The IC50 were then calculated from a dose-response curve of 10 concentrations of tested compound using the 4-parameter logistic model: I% = A + (C)/(1 + exp(−B×log(X)−M)) [formula]
The parameters A and (A+C) are the lower and upper limits, B is the slope of the curve at the inflexion point, M parameter is the logarithm of the abscissa at the inflexion point, and X is the concentration of compound.

| SMILES | IC50 |
| --- | --- |
| Cc1cc(-c2c(C)nc(N3CCC4(CC3)Cc3ncccc3[C@H]4N)c3ccnn23)cnn1 [Compound 124, (5S)-1'-[6-methyl-7-(6-methylpyridazin-4-yl)pyrazolo[1,5-a]pyrazin-4-yl]spiro[5,7-dihydrocyclopenta[b]pyridine-6,4'-piperidine]-5-amine hydrochloride] | 0.391 µM |
| Cc1cnc2c(c1)[C@@H](N)C1(CCN(c3nc(C)c(-c4ccccc4F)n4nccc34)CC1)C2 [Compound 8, (5S)-1'-[7-(2-fluorophenyl)-6-methyl-pyrazolo[1,5-a]pyrazin-4-yl]-3-methyl-spiro[5,7-dihydrocyclopenta[b]pyridine-6,4'-piperidine] -5-amine] | 0.006 µM |
| Cc1nc(N2CCC3(CC2)Cc2ncccc2[C@H]3N)c2ccnn2c1-c1cccc(Cl)c1Cl [Compound 192, (5S)-1'-[7-(2,3-dichlorophenyl)-6-methyl-pyrazolo[1,5-a]pyrazin-4-yl]spiro[5,7-dihydrocyclopenta[b]pyridine-6,4'-piperidine]-5-amine] | 0.002 µM |
| Cc1nc(N2CCC3(CC2)Cc2ncccc2[C@H]3N)c2ccnn2c1-c1ccncc1 [Compound 70, (5S)-1'-[6-methyl-7-(4-pyridyl)pyrazolo[1,5-a]pyrazin-4-yl]spiro[5,7-dihydrocyclopenta[b]pyridine-6,4'-piperidine]-5-amine hydrochloride] | 0.073 µM |
| N[C@@H]1c2cccnc2CC12CCN(c1ncc(-c3ccc(F)c4cc[nH]c34)n3nccc13)CC2 [Compound 89, (5S)-1'-[7-(4-fluoro-1H-indol-7-yl)pyrazolo[1,5-a]pyrazin-4-yl]spiro[5,7-dihydrocyclopenta[b]pyridine-6,4'-piperidine] -5-amine hydrochloride] | 0.009 µM |
| Cc1nc(N2CCC3(CC2)Cc2ncccc2[C@H]3N)c2ccnn2c1-c1ccncc1Cl [Compound 100, (5S)-1'-[7-(3-chloro-4-pyridyl)-6-methyl-pyrazolo[1,5-a]pyrazin-4-yl]spiro[5,7-dihydrocyclopenta[b]pyridine-6,4'-piperidine]-5-amine hydrochloride] | 0.013 µM |
| COc1ccc2c(c1)[C@@H](N)C1(CCN(c3nc(C)c(-c4cc(C)nn4C)n4nccc34)CC1)C2 [Compound 123, (1S)-1'-[7-(2,5-dimethylpyrazol-3-yl)-6-methyl-pyrazolo[1,5-a]pyrazin-4-yl]-6-methoxy-spiro[indane-2,4'-piperidine]-1-amine hydrochloride] | 0.009 µM |
| COc1ccc2c(c1)[C@@H](N)C1(CCN(c3nc(C)c(-c4cnn(C)c4C)n4nccc34)CC1)C2 [Compound 120, (1S)-1'-[7-(1,5-dimethylpyrazol-4-yl)-6-methyl-pyrazolo[1,5-a]pyrazin-4-yl]-6-methoxy-spiro[indane-2,4'-piperidine]-1-amine hydrochloride] | 0.011 µM |
| Cc1nc(N2CCC3(CC2)Cc2ncccc2[C@@H]3N)c2ccnn2c1-c1ccccc1 [Compound 141, (5R)-1'-(6-methyl-7-phenyl-pyrazolo[1,5-a]pyrazin-4-yl)spiro[5,7-dihydrocyclopenta[b]pyridine-6,4'-piperidine]-5-amine] | 0.853 µM |
| COc1ccc2c(n1)CC1(CCN(c3nc(C)c(-c4ccccc4F)n4nccc34)CC1)[C@@H]2N [Compound 56, (5S)-1'-[7-(2-fluorophenyl)-6-methyl-pyrazolo[1,5-a]pyrazin-4-yl]-2-methoxy-spiro[5,7-dihydrocyclopenta[b]pyridine-6,4'-piperidine]-5-amine] | 0.017 µM |
| Cc1nc(N2CCC3(CC2)Cc2ncccc2[C@H]3N)c2ccnn2c1-c1ccc(F)c(F)c1 [Compound 201, (5S)-1'-[7-(3,4-difluorophenyl)-6-methyl-pyrazolo[1,5-a]pyrazin-4-yl]spiro[5,7-dihydrocyclopenta[b]pyridine-6,4'-piperidine]-5-amine] | 0.003 µM |
| Cc1nc(N2CCC3(CC2)Cc2ccc(F)cc2[C@H]3N)c2ccnn2c1-c1cnn(C)c1C [Compound 103, (1S)-1'-[7-(1,5-dimethylpyrazol-4-yl)-6-methyl-pyrazolo[1,5-a]pyrazin-4-yl]-6-fluoro-spiro [indane-2,4'-piperidine]-1-amine hydrochloride] | 0.012 µM |

More lines, now with the values ahead:

| IC50 | SMILES |
| --- | --- |
| 0.016 µM | Cc1nc(N2CCC3(CC2)Cc2ncccc2[C@H]3N)c2ccnn2c1-c1ccnc(CO)c1Cl [Compound 207, [4-[4-[(5S)-5-aminospiro[5,7-dihydrocyclopenta[b]pyridine-6,4'-pipetidine]-1'-yl]-6-methyl-pyrazolo[1,5-a]pyrazin-7-yl]-3-chloro-2-pyridyl]methanol] |
| 0.009 µM | Cc1ncc(-c2c(C)nc(N3CCC4(CC3)Cc3ncccc3[C@H]4N)c3ccnn23)s1 [Compound 152, (5S)-1'-[6-methyl-7-(2-methylthiazol-5-yl)pyrazolo [1,5-a]pyrazin-4-yl]spiro[5,7-dihydrocyclopenta[b]pyridine-6,4'-piperidine] -5-amine] |
| 0.004 µM | Cc1cnc2c(c1)[C@@H](N)C1(CCN(c3nc(C)c(-c4ccnc(C)c4Cl)n4nccc34)CC1)C2 [Compound 43, (5S)-1'-[7-(3-chloro-2-methyl-4-pyridyl)-6-methyl-pyrazolo[1,5-a]pyrazin-4-yl]-3-methyl-spiro[5,7-dihydrocyclopenta[b]pyridine-6,4'-piperidine]-5-amine] |
| 0.011 µM | Cc1nc(N2CCC3(CC2)Cc2c(F)cccc2[C@H]3N)c2ccnn2c1-c1cnn2ccccc12 [Compound 96, (1S)-4-fluoro-1'-(6-methyl-7-pyrazolo[1,5-a]pyridin-3-yl-pyrazolo[1,5-a]pyrazin-4-yl)spiro[indane-2,4'-piperidine]-1-amine formate] |
| 0.005 µM | Cc1nc(N2CCC3(CC2)Cc2ncccc2[C@H]3N)c2ccnn2c1-c1cccc(C(F)(F)F)c1F [Compound 174, (5S)-1'-[7-[2-fluoro-3-(trifluoromethyl)phenyl] -6-methyl-pyrazolo[1,5-a]pyrazin-4-yl]spiro[5,7-dihydrocyclopenta[b]pyridine-6,4'-piperidine]-5-amine] |
| 0.023 µM | Cc1nc(N2CCC3(CC2)Cc2ncccc2[C@H]3N)c2ccnn2c1-c1cccc2c1ccn2C [Compound 182, (5S)-1'-[6-methyl-7-(1-methylindol-4-yl)pyrazolo[1,5-a]pyrazin-4-yl]spiro[5,7-dihydrocyclopenta[b]pyridine-6,4'-piperidine]-5-amine] |
| 0.014 µM | Cc1nc(N2CCC3(CC2)Cc2ncccc2[C@H]3N)c2ccnn2c1-c1cccc2c1OCC2 [Compound 178, (5S)-1'-[7-(2,3-dihydrobenzofuran-7-yl)-6-methyl-pyrazolo[1,5-a]pyrazin-4-yl]spiro[5,7-dihydrocyclopenta[b]pyridine-6,4'-piperidine]-5-amine] |
| 0.383 µM | Cc1nc(N2CCC3(CC2)Cc2ncccc2[C@@H]3N)c2ccnn2c1-c1ccccc1F [Compound 136, (5R)-1'-[7-(2-fluorophenyl)-6-methyl-pyrazolo[1,5-a]pyrazin-4-yl]spiro[5,7-dihydrocyclopenta[b]pyridine-6,4'-piperidine]-5-amine] |
| > 1 µM | Cc1nc(N2CCC3(CC2)Cc2ncccc2[C@H]3N)c2ccnn2c1-c1cccn(C)c1=O [Compound 227, 3-[4-[(5S)-5-aminospiro[5,7-dihydrocyclopenta[b]pyridine-6,4'-piperidine]-1'-yl]-6-methyl-pyrazolo[1,5-a]pyrazin-7-yl]-1-methyl-pyridin-2-one] |
